Results from patent EP3478687B1 (Daewoong Pharmaceutical Co., Ltd., priority 2016, dated 2018).

Tests used:
[1] = biological target: T1, Recombinant purified human JAK3 (Homo sapiens, UniProt P52333); assay: JAK3 kinase inhibitory activity, ADP-Glo kinase assay (Promega V9441); type: biochemical; conditions: for IC50: ATP 5 uM, 4 ng JAK3 per reaction, 1 hour 30 °C, chemiluminescence; for inhibition at 0.1 µM: @100nM compound
T1 construct: purchased Promega V9441
T1 sequence (P52333 1-1124): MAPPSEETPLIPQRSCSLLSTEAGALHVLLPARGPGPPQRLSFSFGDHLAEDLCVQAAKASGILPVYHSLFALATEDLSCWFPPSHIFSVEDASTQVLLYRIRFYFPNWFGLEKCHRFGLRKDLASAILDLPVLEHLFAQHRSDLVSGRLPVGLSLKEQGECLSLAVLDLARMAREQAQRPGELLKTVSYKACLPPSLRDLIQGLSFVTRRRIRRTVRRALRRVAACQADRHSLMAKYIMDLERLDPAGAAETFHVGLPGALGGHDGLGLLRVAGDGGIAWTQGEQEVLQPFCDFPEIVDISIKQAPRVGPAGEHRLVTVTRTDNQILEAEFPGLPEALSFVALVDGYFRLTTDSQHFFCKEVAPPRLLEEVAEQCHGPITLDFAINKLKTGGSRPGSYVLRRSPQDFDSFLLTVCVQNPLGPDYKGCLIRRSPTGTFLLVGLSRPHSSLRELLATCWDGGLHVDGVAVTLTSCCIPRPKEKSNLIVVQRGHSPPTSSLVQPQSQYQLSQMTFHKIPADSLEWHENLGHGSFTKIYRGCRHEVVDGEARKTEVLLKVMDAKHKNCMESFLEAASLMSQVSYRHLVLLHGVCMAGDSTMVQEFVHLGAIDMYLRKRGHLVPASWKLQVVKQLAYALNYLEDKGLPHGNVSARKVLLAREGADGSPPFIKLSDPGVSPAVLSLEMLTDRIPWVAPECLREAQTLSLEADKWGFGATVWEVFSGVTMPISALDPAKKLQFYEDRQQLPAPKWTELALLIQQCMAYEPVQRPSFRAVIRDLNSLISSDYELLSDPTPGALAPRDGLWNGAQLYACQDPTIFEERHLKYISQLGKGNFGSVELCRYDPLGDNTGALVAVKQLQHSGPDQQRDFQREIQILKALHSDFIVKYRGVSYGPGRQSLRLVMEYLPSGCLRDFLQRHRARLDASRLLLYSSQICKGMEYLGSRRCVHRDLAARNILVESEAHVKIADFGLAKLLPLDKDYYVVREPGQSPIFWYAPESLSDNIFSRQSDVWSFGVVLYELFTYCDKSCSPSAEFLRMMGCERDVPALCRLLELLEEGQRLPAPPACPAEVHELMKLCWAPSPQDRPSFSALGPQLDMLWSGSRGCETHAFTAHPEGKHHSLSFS
Procedure: (§1) JAK3 and BTK kinase inhibitory activities were measured for the compounds prepared in the above Examples through in vitro analysis on the ADP Glow (Glo) platform.
(§2) Specifically, the inhibitory activities of JAK3 and BTK kinase were measured using a JAK3 kinase assay kit (Promega, V9441) and a BTK kinase assay kit (Promega, V9071) which were purchased from Promega. Recombinant purified human JAK3 and BTK were diluted with 1 x kinase reaction buffer (JAK3: 40 mM Tris-Cl, pH 7.5, 20 mM MgCh, 0.1 mg/mL BSA and 50 uM DTT / BTK: 40 mM Tris-Cl, pH 7.5, 20 mM MgCl2, 0.1 mg/mL BSA, 2 mM MnCl2 and 50 uM DTT) and added to a 96 well plate (JAK3: final concentration of 4 ng per reaction/BTK: final concentration of 8 ng per reaction). The compounds were treated so as to be finally a 1% DMSO aqueous solution, and a substrate cocktail containing ATP (JAK3: final concentration of 5 uM / BTK: final concentration of 10 uM) and 0.2 µg/µL of Poly(Glu4, Tyr1) peptide (JAK3 and BTK final concentration) in the total 25 µL reactants was added to a 96-well plate to initiate enzymatic reaction. After incubation (30 °C) for 1 hour, equivalent volume (25 µL per reaction) of ADP Glo was added and incubated (30 °C) for 40 minutes at room temperature. Then, a kinase detection reagent (50 µL per reaction) was added and incubated (30 °C) for 30 minutes at room temperature. The kinase activity was measured by chemiluminescence according to the instructions of ADP Glo kinase assay kit, and the inhibitory activity of the compounds according to the present invention was calculated. For the analysis of the results of each compound, Microsoft Excel was used, and IC50 values were calculated by SigmaPlot software.

[2] = biological target: T2, Recombinant purified human BTK (Homo sapiens, UniProt Q06187); assay: BTK kinase inhibitory activity, ADP-Glo kinase assay (Promega V9071); type: biochemical; conditions: for IC50: ATP 10 uM, 8 ng BTK per reaction, 1 hour 30 °C, chemiluminescence; for inhibition at 0.1 µM: @100nM compound
T2 construct: purchased Promega V9071
Procedure: as §1, §2

[3] = printed in the JAK3 IC50 column

T2 sequence (Q06187 whole entry): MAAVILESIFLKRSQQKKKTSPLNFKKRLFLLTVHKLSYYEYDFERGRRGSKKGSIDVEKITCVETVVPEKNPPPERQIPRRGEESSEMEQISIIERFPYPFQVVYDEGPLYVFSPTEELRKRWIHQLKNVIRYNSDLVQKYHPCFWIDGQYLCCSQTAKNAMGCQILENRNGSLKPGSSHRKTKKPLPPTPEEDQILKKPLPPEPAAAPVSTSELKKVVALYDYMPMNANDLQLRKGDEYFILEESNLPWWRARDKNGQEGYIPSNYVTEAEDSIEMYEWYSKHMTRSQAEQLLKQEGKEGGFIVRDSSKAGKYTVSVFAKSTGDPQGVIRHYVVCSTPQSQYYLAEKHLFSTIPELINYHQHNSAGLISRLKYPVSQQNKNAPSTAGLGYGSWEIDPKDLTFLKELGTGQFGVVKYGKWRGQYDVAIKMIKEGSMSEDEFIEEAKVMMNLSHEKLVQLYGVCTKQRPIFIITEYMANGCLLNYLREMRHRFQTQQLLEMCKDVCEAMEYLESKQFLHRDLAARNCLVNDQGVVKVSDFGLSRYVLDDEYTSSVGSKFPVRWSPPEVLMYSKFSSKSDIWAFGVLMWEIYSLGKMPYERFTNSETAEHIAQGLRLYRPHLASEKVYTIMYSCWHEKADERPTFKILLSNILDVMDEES

SMILES	IC50 [1] [nM]	IC50 [2] [nM]	other results
C=CC(=O)N1CCC[C@@H](Nc2nc(Nc3cnn(C(C)C)c3)nc3[nH]nc(Cl)c23)C1 [Example 50, (R)-1-(3-(3-chloro-6-(1-isopropyl-1H-pyrazol-4-ylamino)-1H-pyrazolo[3,4-d]pyrimidin-4-ylamino)piperidin-1-yl)prop-2-en-1-one]	0.8	1.8	
C=CC(=O)N1CCC[C@@H](Nc2nc(Nc3cnn(CCN(CC)CC)c3)nc3[nH]ccc23)C1 [Example 19, (R)-1-(3-(2-(1-(2-(diethylamino)ethyl)-1H-pyrazol-4-ylamino)-7H-pyrrolo[2,3-d]pyrimidin-4-ylamino)piperidin-1-yl)prop-2-en-1-one]	0.5	8.7	
CCn1cc(Nc2nc(N[C@H]3CN(C(=O)/C(C#N)=C/C(C)C)CC[C@H]3F)c3c(Cl)n[nH]c3n2)cn1 [Example 160, (E)-2-((3S,4R)-3-((3-chloro-6-((1-ethyl-1H-pyrazol-4-yl)amino)-1H-pyrazolo[3,4-d]pyrimidin-4-yl)amino)-4-fluoropiperidine-1-carbonyl)-4-methylpent-2-enenitrile]	1.5	3.4	
C=CC(=O)N1CCC[C@@H](Nc2nc(Nc3cnn(C)c3)nc3[nH]nc(SC)c23)C1 [Example 191, (R)-1-(3-((6-((1-methyl-1H-pyrazol-4-yl)amino)-3-(methylthio)-1H-pyrazolo [3,4-d]pyrimidin-4-yl)amino)piperidin-1-yl)prop-2-en-1-one]	4.2	0.76	
C=CC(=O)N1CCC[C@@H](Nc2nc(Nc3cnn(CC#N)c3)nc3[nH]nc(Cl)c23)C1 [Example 52, (R)-2-(4-(4-(1-acryloylpiperidin-3-ylamino)-3-chloro-1H-pyrazolo[3,4-d]pyrimidin-6-ylamino)-1H-pyrazol-1-yl)acetonitrile]	0.2	0.8	
C=CC(=O)N1CCC[C@H](Nc2nc(Nc3cccc(NC(=O)N4CCCC4)c3)nc3[nH]ccc23)C1 [Example 3, (S)-N-(3-(4-(1-acryloylpiperidin-3-ylamino)-7H-pyrrolo[2,3-d]pyrimidin-2-ylamino)phenyl)pyrrolidine-1-carboxamide]			inhibition at 0.1 µM [1, 3]: 28.2%; inhibition at 0.1 µM [2]: 30%
CCn1cc(Nc2nc(S[C@@H]3CCCN(C(=O)/C(C#N)=C/C4CC4)C3)c3cn[nH]c3n2)cn1 [Example 176, (R,E)-3-cyclopropyl-2-(3-((6-((1-ethyl-1H-pyrazol-4-yl)amino)-1H-pyrazolo[3,4-d]pyrimidin-4-yl)thio)piperidine-1-carbonyl)acrylonitrile]	42.1	3	
C=CC(=O)N1CCC[C@@H](Nc2nc(Nc3ccc(-n4nc(C)cc4C)cc3)nc3[nH]nc(Cl)c23)C1 [Example 43]	9.9	6.7	
CCn1cc(Nc2nc(N[C@@H]3CCCN(C(=O)/C(C#N)=C/C4CC4)C3)c3c(F)c[nH]c3n2)cn1 [Example 182]	2.3	2.1	
C=CC(=O)N1CCC[C@@H](Nc2nc(Nc3ccc(N4CCOCC4)c(F)c3)nc3[nH]cc(Cl)c23)C1 [Example 98, (R)-1-(3-((5-chloro-2-((3-fluoro-4-morpholinophenyl)amino)-7H-pyrrolo [2,3-d]pyrimidin-4-yl)amino)piperidin-1-yl)prop-2-en-1-one]	2.4	14.1	
C=CC(=O)N1CCC[C@@H](Nc2nc(Nc3cnn(C(C)(C)C)c3)nc3[nH]nc(Cl)c23)C1 [Example 53, (R)-1-(3-(6-(1-tert-butyl-1H-pyrazol-4-ylamino)-3-chloro-1H-pyrazolo[3,4-d]pyrimidin-4-ylamino)piperidin-1-yl)prop-2-en-1-one]	1	0.9	
CC#CC(=O)N1CCC[C@@H](Nc2nc(Nc3cnn(CC(F)F)c3)nc3[nH]ccc23)C1 [Example 25, (R)-1-(3-(2-(1-(2,2-difluoroethyl)-1H-pyrazol-4-ylamino)-7H-pyrrolo[2,3-d]pyrimidin-4-ylamino)piperidin-1-yl)but-2-yn-1-one]	11.2		inhibition at 0.1 µM [2]: 39.3%
C=CC(=O)N1CC[C@@H](C)[C@@H](N(C)c2nc(Nc3ccc(N4CCN(C)CC4)cc3)nc3[nH]ccc23)C1 [Example 27, 1-((3R,4R)-4-methyl-3-(methyl(2-(4-(4-methylpiperazin-1-yl)phenylamino)-7H-pyrrolo[2,3-d]pyrimidin-4-yl)amino)piperidin-1-yl)prop-2-en-1-one]			inhibition at 1 µM ([1]; @1uM compound, printed in the JAK3 IC50 column): 32.8%; inhibition at 1 µM ([2]; @1uM compound): 48%
C=CC(=O)N1CCC[C@H](Nc2nc(Nc3ccc(N4CCN(C)CC4)cc3)nc3[nH]ccc23)C1 [Example 11, (S)-1-(3-(2-(4-(4-methylpiperazin-1-yl)phenylamino)-7H-pyrrolo[2,3-d]pyrimidin-4-ylamino)piperidin-1-yl)prop-2-en-1-one]			inhibition at 0.1 µM [1, 3]: 36%; inhibition at 0.1 µM [2]: 26.5%
C=CC(=O)N1CC[C@@H](C)[C@@H](Nc2nc(Nc3cnn(CC)c3)nc3[nH]ncc23)C1 [Example 106, 1-((3R,4R)-3-((6-((1-ethyl-1H-pyrazol-4-yl)amino)-1H-pyrazolo [3,4-d]pyrimidin-4-yl)amino)-4-methylpiperidin-1-yl)prop-2-en-1-one]	54.8	1.8	

Now from value to molecule, other results behind:

IC50 [1] [nM]	IC50 [2] [nM]	SMILES	other results
8.4	33.3	C=CC(=O)N1CCC[C@@H](Nc2nc(Nc3ccc(-n4nc(C)cc4C)cc3)nc3[nH]cc(C)c23)C1 [Example 80, (R)-1-(3-((2-((4-(3,5-dimethyl-1H-pyrazol-1-yl)phenyl)amino)-5-methyl-7H-pyrrolo[2,3-d]pyrimidin-4-yl)amino)piperidin-1-yl)prop-2-en-1-one]	
> 80	986	C/C=C/C(=O)N1CCC[C@@H](Nc2nc(Nc3ccc(N4CCN(C)CC4)cc3)nc3[nH]cc(Cl)c23)C1 [Example 140, (R,E)-1-(3-((5-chloro-2-((4-(4-methylpiperazin-1-yl)phenyl)amino)-7H-pyrrolo [2,3-d]pyrimidin-4-yl)amino)piperidin-1-yl)but-2-en-1-one]	
24.6	76.7	C=CC(=O)N1CCC[C@@H](Nc2nc(Nc3ccc(N4CCCC4)cc3)nc3[nH]ccc23)C1 [Example 5, (R)-1-(3-(2-(4-(pyrrolidin-1-yl)phenylamino)-7H-pyrrolo[2,3-d]pyrimidin-4-ylamino)piperidin-1-yl)prop-2-en-1-one]	
0.6	11.8	C=CC(=O)N1CCC[C@@H](Nc2nc(Nc3cnn(CCOC)c3)nc3[nH]ccc23)C1 [Example 17, (R)-1-(3-(2-(1-(2-methoayethyl)-1H-pyrazol-4-ylamino)-7H-pyrrolo[2,3-d]pyrimidin-4-ylamino)piperidin-1-yl)prop-2-en-1-one]	
8.9	27	C=CC(=O)N1CCC[C@@H](Nc2nc(Nc3cccc(NC(=O)N4CCCC4)c3)nc3[nH]ccc23)C1 [Example 2, (R)-N-(3-(4-(1-acryloylpiperidin-3-ylamino)-7H-pyrrolo[2,3-d]pyrimidin-2-ylamino)phenyl)pyrrolidine-1-carboxamide]	
